Data on six substances can be found in patent US20230263822A1, “MODULATION OF FACTOR 11 EXPRESSION” (Ionis Pharmaceuticals, Inc., priority 2008, published 2023).

In one series the test system is Factor 11 protein. Briefly: Factor 11 protein in monkey plasma by sandwich ELISA (Example 45). In kind it is in vivo, cynomolgus monkeys. Conditions: for Inhibition of Factor 11 protein relative to the PBS control: plasma ELISA. How it is done:
(§1) Groups, each consisting of two male and three female monkeys, were injected subcutaneously with ISIS 416838, ISIS 416850, ISIS 416858, ISIS 416864, or ISIS 417002 in escalating doses. Antisense oligonucleotide was administered to the monkeys at 5 mg/kg three times per a week for week 1; 5 mg/kg twice per week for weeks 2 and 3; 10 mg/kg three times per week for week 4; 10 mg/kg twice per week for weeks 5 and 6; 25 mg/kg three times per week for week 7; and 25 mg/kg twice per week for weeks 8, 9, 10, 11, and 12. One control group, consisting of two male and three female monkeys, was injected subcutaneously with PBS according to the same dosing regimen. An additional experimental group, consisting of two male and three female monkeys, was injected subcutaneously with ISIS 416850 in a chronic, lower dose regimen. Antisense oligonucleotide was administered to the monkeys at 5 mg/kg three times per week for week 1; 5 mg/kg twice per week for week 2 and 3; 10 mg/kg three times per week for week 4; and 10 mg/kg twice per week for weeks 5 to 12. Body weights were measured weekly. Blood samples were collected 14 days and 5 days before the start of treatment and subsequently once per week for Factor 11 protein activity analysis in plasma, fibrinogen measurement, PT and aPTT measurements, bleeding times, and measurement of various hematologic factors. On day 85, the monkeys were euthanized by exsanguination while under deep anesthesia, and organs harvested for further analysis.
Plasma samples from all monkey groups taken on different days were analyzed by a sandwich-style ELISA assay (Affinity Biologicals Inc.) using an affinity-purified polyclonal anti-Factor 11 antibody as the capture antibody and a peroxidase-conjugated polyclonal anti-Factor 11 antibody as the detecting antibody. Monkey plasma was diluted 1:50 for the assay. Peroxidase activity was expressed by incubation with the substrate o-phenylenediamine. The color produced was quantified using a microplate reader at 490 nm and was considered to be proportional to the concentration of Factor 11 in the samples.
The results are presented in Table 115, expressed as percentage reduction relative to that of the PBS control.
(In general: In an ELISA, binding on a coated surface is turned into a signal by an enzyme label.)

Series [1] is described as follows: Liver function, ALT, AST, bilirubin in cynomolgus monkeys (Example 45). In kind it is in vivo. Conditions: plasma. How it is done:
as §1
The ISIS oligonucleotide, ISIS 416850, given with the chronic dose regimen is distinguished from the other oligonucleotides with an asterisk (*).

The nature of series [2]: Tolerability in CD1 mice: hematology assays (Example 41). The following applies: 50 mg/kg s.c. twice per week for 6 weeks, blood.
Series [3] in a line: Tolerability in CD1 mice: kidney function (Example 43). The class given is in vivo. Conditions: 50 mg/kg s.c. twice per week for 6 weeks, plasma.
Where [4] appears, read: day 22, escalating dose regimen.
The mark [5] stands for this setting: day 43, escalating dose regimen.
Setting [6] is: day 64, escalating dose regimen.
The mark [7] stands for this setting: day 85, escalating dose regimen.
Setting [8] is: day −14, escalating dose regimen.
Setting [9] is: day 22, chronic dose regimen (*).
The mark [10] stands for this setting: day 43, chronic dose regimen (*).
[11] abbreviates: day −14, chronic dose regimen (*).

Strand notation (5' to 3'): a small letter for the sugar, then the base; units joined by * are phosphorothioate-linked, units joined directly phosphodiester-linked; [ ] holds rarer units or linkages, { } end groups; capitals alone tell only the bases. e = 2'-O-(2-methoxyethyl) (MOE); [5mC] = 5-methylcytosine; d = 2'-deoxy (DNA)

“ISIS 416850: MOE gapmer, nucleobases 1275 to 1318 of SEQ ID NO: 1 (Table 8) (antisense TGCACAGTTTCTGGCAGGCC; MOE gapmer, wing and gap sizes not given here)”: the “Factor 11 protein levels in plasma” value in the series with Factor 11 protein (cynomolgus monkeys, escalating dose regimen, ELISA) is listed as “time-dependent decrease in protein levels”. Besides, the “Inhibition of Factor 11 protein relative to the PBS control” value in the series with Factor 11 protein (day 8, chronic, lower dose regimen (*)) is on record as 6%; in the series with Factor 11 protein (day 8, escalating dose regimen) it was 8%; with Factor 11 protein (day 15, chronic, lower dose regimen (*)), 13%; in the series on Factor 11 protein (day 15, escalating dose regimen), 4%; in the series with Factor 11 protein (day 22, chronic, lower dose regimen (*)), 12%; in the series with Factor 11 protein (setting [4]) it was 11%. For the same substance, the “Inhibition of Factor 11 protein relative to the PBS control” value in the series on Factor 11 protein (day 29, chronic, lower dose regimen (*)) was determined as 20%; in the series with Factor 11 protein (day 29, escalating dose regimen), 15%; with Factor 11 protein (day 36, chronic, lower dose regimen (*)), 22%; in the series with Factor 11 protein (day 36, escalating dose regimen), 17%; in the series with Factor 11 protein (day 43, chronic, lower dose regimen (*)), 24%; in the series on Factor 11 protein (setting [5]), 23%. Further, the “Inhibition of Factor 11 protein relative to the PBS control” value in the series on Factor 11 protein (day 50, chronic, lower dose regimen (*)) came out at 30%; in the series with Factor 11 protein (day 50, escalating dose regimen), 42%; with Factor 11 protein (day 57, chronic, lower dose regimen (*)), 34%; in the series with Factor 11 protein (day 57, escalating dose regimen) it was 49%; with Factor 11 protein (day 64, chronic, lower dose regimen (*)), 37%; with Factor 11 protein (setting [6]) it was 55%. The “Inhibition of Factor 11 protein relative to the PBS control” value came to 41% in the series with Factor 11 protein (day 71, chronic, lower dose regimen (*)); 57% with Factor 11 protein (day 71, escalating dose regimen); 42% in the series with Factor 11 protein (day 78, chronic, lower dose regimen (*)); 63% in the series with Factor 11 protein (day 78, escalating dose regimen); 34% in the series with Factor 11 protein (day 85, chronic, lower dose regimen (*)); 64% in the series with Factor 11 protein (setting [7]). The “Inhibition of Factor 11 protein relative to the PBS control” value turned out to be 1% in the series on Factor 11 protein (day −5, chronic, lower dose regimen (*)); 0% in the series on Factor 11 protein (day −5, escalating dose regimen); 0% with Factor 11 protein (day −14, chronic, lower dose regimen (*)); 0% in the series with Factor 11 protein (setting [8]). Besides, the ALT is listed as 42 IU/L in series [1] (setting [9]); 41 IU/L in series [1] (setting [4]); 41 IU/L in series [1] (setting [10]); 43 IU/L in series [1] (setting [5]); 60 IU/L in series [1] (setting [6]); 75 IU/L in series [1] (setting [7]). The results for the ALT in series [1] (setting [11]) and in series [1] (setting [8]) were 80 IU/L and 54 IU/L, respectively. Also, the AST in series [1] (setting [9]) was determined as 39 IU/L; in series [1] (setting [4]) it was 45 IU/L; in series [1] (setting [10]), 40 IU/L; in series [1] (setting [5]), 50 IU/L; in series [1] (setting [6]) it was 56 IU/L; in series [1] (setting [7]) it was 82. IU/L. Besides, the AST in series [1] (setting [11]) was found to be 100 IU/L; in series [1] (setting [8]) it was 81 IU/L. Moreover, the Bilirubin in series [1] (setting [9]) is 0.19 mg/dL; in series [1] (setting [4]), 0.13 mg/dL; in series [1] (setting [10]) it was 0.18 mg/dL; in series [1] (setting [5]) it was 0.13 mg/dL; in series [1] (setting [6]), 0.14 mg/dL; in series [1] (setting [7]), 0.14 mg/dL. Further, the Bilirubin came out at 0.28 mg/dL in series [1] (setting [11]) and 0.21 mg/dL in series [1] (setting [8]). The substance also returned an HCT in series [2] of 50%. In series [2], this substance gave a Lymphocyte of 4710. This substance also yielded a Neutrophil in series [2] of 1314. In addition, in series [2], the Platelets was determined as 614. In addition, the RBC in series [2] is 9.8. In series [2], this substance came in with a WBC of 6. This substance displayed a hemoglobin in series [2] of 14.8 g/dL.

Take “ISIS 449707: 3-8-3, 4-8-4, 2-10-2, 3-10-3 or 4-10-4 MOE microwalk gapmer (Table 46) (antisense e[5mC]*eA*e[5mC]*eA*dG*dT*dT*dT*d[5mC]*dT*dG*dG*e[5mC]*eA*eG*eG)”: in series [3], the BUN was determined as 27 mg/dL and the Creatinine stood at 0.2 mg/dL.

In series [3], “ISIS 449708: 3-8-3, 4-8-4, 2-10-2, 3-10-3 or 4-10-4 MOE microwalk gapmer (Table 46) (antisense eA*e[5mC]*eA*dG*dT*dT*dT*d[5mC]*dT*dG*dG*e[5mC]*eA*eG)” came in with a BUN of 28 mg/dL and a Creatinine of 0.2 mg/dL.

Turning to “ISIS 449709: 3-8-3, 4-8-4, 2-10-2, 3-10-3 or 4-10-4 MOE microwalk gapmer (Table 46) (antisense eG*e[5mC]*eA*e[5mC]*dA*dG*dT*dT*dT*d[5mC]*dT*dG*dG*d[5mC]*eA*eG*eG*e[5mC])”, in series [3], the BUN is on record as 34 mg/dL and the Creatinine is on record as 0.3 mg/dL.

With “ISIS 449710: 3-8-3, 4-8-4, 2-10-2, 3-10-3 or 4-10-4 MOE microwalk gapmer (Table 46) (antisense e[5mC]*eA*e[5mC]*dA*dG*dT*dT*dT*d[5mC]*dT*dG*dG*d[5mC]*eA*eG*eG)”, in series [3], the BUN worked out at 29 mg/dL and the Creatinine is given as 0.2 mg/dL.

On to “ISIS 449711: 3-8-3, 4-8-4, 2-10-2, 3-10-3 or 4-10-4 MOE microwalk gapmer (Table 46) (antisense eA*e[5mC]*dA*dG*dT*dT*dT*d[5mC]*dT*dG*dG*d[5mC]*eA*eG)”, for which, in series [3], the BUN was 26 mg/dL and the Creatinine is listed as 0.2 mg/dL.
